What all share (assay): cAMP activity assay in assay medium (assay 1)
Format in all cases: cell-based

One assay addresses T1, Human GIPr (Homo sapiens, UniProt P48546).
T1 construct: expressed in transfected cells
T1 sequence (P48546 22-466): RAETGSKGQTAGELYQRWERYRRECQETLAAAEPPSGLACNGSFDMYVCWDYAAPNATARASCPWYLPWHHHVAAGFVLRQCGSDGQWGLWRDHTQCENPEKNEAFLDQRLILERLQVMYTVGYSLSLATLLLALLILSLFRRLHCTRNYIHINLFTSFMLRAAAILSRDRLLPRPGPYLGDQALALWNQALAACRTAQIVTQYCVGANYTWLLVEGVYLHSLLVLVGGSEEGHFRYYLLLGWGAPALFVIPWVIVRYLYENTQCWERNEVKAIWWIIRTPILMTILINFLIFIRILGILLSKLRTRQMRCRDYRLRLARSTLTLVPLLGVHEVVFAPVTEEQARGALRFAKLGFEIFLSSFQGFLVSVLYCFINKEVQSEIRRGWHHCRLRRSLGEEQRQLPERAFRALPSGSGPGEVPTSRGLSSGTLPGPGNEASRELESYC
Conditions: assay medium; Table 4; read-out: hGIPR EC50. An excerpt: (§1) Biological Activity of Peptides in Cell-Based cAMP Activity Assay (Assay 1):
(§2) All sample dilutions were made in duplicate.

A further assay concerns the target T2, Human GlucR (Homo sapiens, UniProt P47871).
T2 construct: expressed in transfected cells
Conditions: assay medium; Table 4; read-out: hGlucR EC50.
From the text: as §1, §2

The target in a further assay is Human GLP1R (Homo sapiens, UniProt P43220). Details: expressed in transfected cells. Conditions: assay medium; Table 4; read-out: hGLP1R EC50.
Chain of Human GLP1R (P43220 24-463): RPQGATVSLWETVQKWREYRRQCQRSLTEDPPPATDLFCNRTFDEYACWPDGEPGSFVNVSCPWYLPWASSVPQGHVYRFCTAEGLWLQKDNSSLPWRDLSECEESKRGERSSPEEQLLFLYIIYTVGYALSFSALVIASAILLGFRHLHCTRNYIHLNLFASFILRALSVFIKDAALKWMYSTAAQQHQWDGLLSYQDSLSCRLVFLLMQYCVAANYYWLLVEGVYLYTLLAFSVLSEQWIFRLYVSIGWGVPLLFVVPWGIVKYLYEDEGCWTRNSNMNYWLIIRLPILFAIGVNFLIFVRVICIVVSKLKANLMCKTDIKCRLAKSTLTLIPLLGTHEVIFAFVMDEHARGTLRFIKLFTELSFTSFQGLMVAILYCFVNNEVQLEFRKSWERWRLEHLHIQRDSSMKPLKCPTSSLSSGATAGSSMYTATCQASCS
From the text: as §1, §2

Values joined by “and” are separate entries in the source; they are usually repeats but may differ in a detail not shown here. Equal values may be shown once. Numbered stars: 1 amine (or outer) side, 2 acyl side, 3 side chain; on linkers, the order of the positions; unused ones are H or OH. Side chains are listed from the residue outwards. Peptide text beside a SMILES is read from it. * marks the point of attachment. γGlu = O=C(O)[C@H](CCC(=O)[*:2])N[*:1]; Palmitoyl = CCCCCCCCCCCCCCCC(=O)*; Ahx = NCCCCCC(=O)O

T2 sequence (P47871 26-477): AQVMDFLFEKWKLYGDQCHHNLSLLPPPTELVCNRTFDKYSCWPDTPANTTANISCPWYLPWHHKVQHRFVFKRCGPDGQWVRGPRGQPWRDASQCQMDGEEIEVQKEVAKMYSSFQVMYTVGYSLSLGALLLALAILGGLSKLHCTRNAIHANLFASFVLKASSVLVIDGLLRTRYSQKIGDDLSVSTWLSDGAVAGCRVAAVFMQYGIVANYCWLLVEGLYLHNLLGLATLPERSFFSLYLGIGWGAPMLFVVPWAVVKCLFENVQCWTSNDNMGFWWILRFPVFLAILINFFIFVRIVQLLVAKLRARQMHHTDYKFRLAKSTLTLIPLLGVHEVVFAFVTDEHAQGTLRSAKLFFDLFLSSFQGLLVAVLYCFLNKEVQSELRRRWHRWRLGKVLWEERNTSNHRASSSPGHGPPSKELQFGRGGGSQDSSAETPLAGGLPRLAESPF

On to `CCCCCCCCCCCCCCCC(=O)N[C@@H](CCC(=O)NCCCC[C@H](NC(=O)[C@H](CO)NC(=O)[C@H](CC(=O)O)NC(=O)[C@H](CC(C)C)NC(=O)[C@H](Cc1ccc(O)cc1)NC(=O)[C@H](CCCCN)NC(=O)[C@H](CO)NC(=O)[C@H](Cc1ccc(O)cc1)NC(=O)[C@H](CC(=O)O)NC(=O)[C@H](CO)NC(=O)[C@@H](NC(=O)[C@H](Cc1ccccc1)NC(=O)[C@@H](NC(=O)CNC(=O)[C@H](CCC(=O)O)NC(=O)[C@H](CO)NC(=O)[C@@H](N)Cc1c[nH]cn1)[C@@H](C)O)[C@@H](C)O)C(=O)N[C@@H](CCCNC(=N)N)C(=O)N[C@@H](C)C(=O)N[C@@H](CCC(N)=O)C(=O)N[C@@H](CC(=O)O)C(=O)N[C@@H](Cc1ccccc1)C(=O)N[C@H](C(=O)N[C@@H](CCC(N)=O)C(=O)N[C@@H](Cc1c[nH]c2ccccc12)C(=O)N[C@@H](CC(C)C)C(=O)N[C@H](C(=O)N[C@@H](C)C(=O)NCC(=O)NCC(N)=O)C(C)C)C(C)C)C(=O)O` [g381] (H-HSEGTFTSDYSKYLDSK([γGlu-Palmitoyl])RAQDFVQWLVAGG-NH2; N-terminus assumed), for which the results for the EC50 at Human GIPr, at Human GlucR and at Human GLP1R were 545 nM, 1.93 nM and 0.0908 nM, respectively.
In the same order, the values of `CCCCCCCCCCCCCCCC(=O)N[C@@H](CCC(=O)NCCCC[C@H](NC(=O)[C@H](CO)NC(=O)[C@H](CC(=O)O)NC(=O)[C@H](CC(C)C)NC(=O)[C@H](Cc1ccc(O)cc1)NC(=O)[C@H](CCCCN)NC(=O)[C@H](CO)NC(=O)[C@H](Cc1ccc(O)cc1)NC(=O)[C@H](CC(=O)O)NC(=O)[C@H](CO)NC(=O)[C@@H](NC(=O)[C@H](Cc1ccccc1)NC(=O)[C@@H](NC(=O)CNC(=O)[C@H](CCC(N)=O)NC(=O)C(C)(C)NC(=O)[C@@H](N)Cc1c[nH]cn1)[C@@H](C)O)[C@@H](C)O)C(=O)N[C@@H](CCCNC(=N)N)C(=O)N[C@@H](C)C(=O)N[C@@H](CCC(N)=O)C(=O)N[C@@H](CC(=O)O)C(=O)N[C@@H](Cc1ccccc1)C(=O)N[C@H](C(=O)N[C@@H](CCC(N)=O)C(=O)N[C@@H](Cc1c[nH]c2ccccc12)C(=O)N[C@@H](CC(C)C)C(=O)N[C@H](C(=O)N[C@@H](C)C(=O)NCC(=O)NCC(N)=O)C(C)C)C(C)C)C(=O)O` [g384] are 17 nM, 0.0429 nM and 0.0272 nM.
For `CCCCCCCCCCCCCCCC(=O)N[C@@H](CCC(=O)NCCCC[C@H](NC(=O)[C@H](CO)NC(=O)[C@H](CC(=O)O)NC(=O)[C@H](CC(C)C)NC(=O)[C@H](Cc1ccc(O)cc1)NC(=O)[C@H](CCCCN)NC(=O)[C@H](CO)NC(=O)[C@H](Cc1ccc(O)cc1)NC(=O)[C@H](CC(=O)O)NC(=O)[C@H](CO)NC(=O)[C@@H](NC(=O)[C@H](Cc1ccccc1)NC(=O)[C@@H](NC(=O)CNC(=O)[C@H](CCC(N)=O)NC(=O)CNC(=O)[C@@H](N)Cc1c[nH]cn1)[C@@H](C)O)[C@@H](C)O)C(=O)N[C@@H](CCCNC(=N)N)C(=O)N[C@@H](C)C(=O)N[C@@H](CCC(N)=O)C(=O)N[C@@H](CC(=O)O)C(=O)N[C@@H](Cc1ccccc1)C(=O)N[C@H](C(=O)N[C@@H](CCC(N)=O)C(=O)N[C@@H](Cc1c[nH]c2ccccc12)C(=O)N[C@@H](CC(C)C)C(=O)N[C@@H](CCC(=O)O)C(=O)N[C@@H](C)C(=O)NCC(=O)NCC(N)=O)C(C)C)C(=O)O` [g512], the EC50 on Human GIPr was 407 nM; at Human GlucR it was 0.0606 nM; on Human GLP1R it was 0.098 nM.
For `CCCCCCCCCCCCCCCC(=O)N[C@@H](CCC(=O)NCCCC[C@H](NC(=O)[C@H](CO)NC(=O)[C@H](CC(=O)O)NC(=O)[C@H](CC(C)C)NC(=O)[C@H](Cc1ccc(O)cc1)NC(=O)[C@H](CCCCN)NC(=O)[C@H](CO)NC(=O)[C@H](Cc1ccc(O)cc1)NC(=O)[C@H](CC(=O)O)NC(=O)[C@H](CO)NC(=O)[C@@H](NC(=O)[C@H](Cc1ccccc1)NC(=O)[C@@H](NC(=O)CNC(=O)[C@H](CCC(=O)O)NC(=O)[C@H](CO)NC(=O)[C@@H](N)Cc1c[nH]cn1)[C@@H](C)O)[C@@H](C)O)C(=O)N[C@@H](CCCNC(=N)N)C(=O)N[C@@H](C)C(=O)N[C@@H](CCC(N)=O)C(=O)N[C@@H](CC(=O)O)C(=O)N[C@@H](Cc1ccccc1)C(=O)N[C@H](C(=O)N[C@@H](CCC(N)=O)C(=O)N[C@@H](Cc1c[nH]c2ccccc12)C(=O)N[C@@H](CC(C)C)C(=O)N[C@@H](CCC(=O)O)C(=O)N[C@@H](C)C(=O)NCC(=O)NCC(N)=O)C(C)C)C(=O)O` [g513] (H-HSEGTFTSDYSKYLDSK([γGlu-Palmitoyl])RAQDFVQWLEAGG-NH2; N-terminus assumed), in that order: 298 nM, 0.723 nM and 0.175 nM.
For `CCCCCCCCCCCCCCCC(=O)N[C@@H](CCC(=O)NCCCC[C@H](NC(=O)[C@H](CO)NC(=O)[C@H](CC(=O)O)NC(=O)[C@H](CC(C)C)NC(=O)[C@H](Cc1ccc(O)cc1)NC(=O)[C@H](CCCCN)NC(=O)[C@H](CO)NC(=O)[C@H](Cc1ccc(O)cc1)NC(=O)[C@H](CC(=O)O)NC(=O)[C@H](CO)NC(=O)[C@@H](NC(=O)[C@H](Cc1ccccc1)NC(=O)[C@@H](NC(=O)CNC(=O)[C@H](CCC(N)=O)NC(=O)CNC(=O)[C@@H](N)Cc1c[nH]cn1)[C@@H](C)O)[C@@H](C)O)C(=O)N[C@@H](CCCNC(=N)N)C(=O)N[C@@H](C)C(=O)N[C@@H](CCC(N)=O)C(=O)N[C@@H](CC(=O)O)C(=O)N[C@@H](Cc1ccccc1)C(=O)N[C@H](C(=O)N[C@@H](CCC(N)=O)C(=O)N[C@@H](Cc1c[nH]c2ccccc12)C(=O)N[C@@H](CC(C)C)C(=O)N[C@@H](CCC(=O)O)C(=O)N[C@@H](CCCNC(=N)N)C(=O)NCC(=O)NCC(N)=O)C(C)C)C(=O)O` [g588], in that order: 98 nM, 0.0723 nM and 0.11 nM.
Regarding `CCCCCCCCCCCCCCCC(=O)N[C@@H](CCC(=O)NCCCC[C@H](NC(=O)[C@H](CO)NC(=O)[C@H](CC(=O)O)NC(=O)[C@H](CC(C)C)NC(=O)[C@H](Cc1ccc(O)cc1)NC(=O)[C@H](CCCCN)NC(=O)[C@H](CO)NC(=O)[C@H](Cc1ccc(O)cc1)NC(=O)[C@H](CC(=O)O)NC(=O)[C@H](CO)NC(=O)[C@@H](NC(=O)[C@H](Cc1ccccc1)NC(=O)[C@@H](NC(=O)CNC(=O)[C@H](CCC(N)=O)NC(=O)[C@H](CO)NC(=O)[C@@H](N)Cc1c[nH]cn1)[C@@H](C)O)[C@@H](C)O)C(=O)N[C@@H](CCCNC(=N)N)C(=O)N[C@@H](C)C(=O)N[C@@H](CCC(N)=O)C(=O)N[C@@H](CC(=O)O)C(=O)N[C@@H](Cc1ccccc1)C(=O)N[C@H](C(=O)N[C@@H](CCC(=O)O)C(=O)N[C@@H](Cc1c[nH]c2ccccc12)C(=O)N[C@@H](CC(C)C)C(=O)N[C@H](C(=O)N[C@@H](C)C(=O)NCC(=O)NCC(N)=O)C(C)C)C(C)C)C(=O)O` [g600] (H-HSQGTFTSDYSKYLDSK([γGlu-Palmitoyl])RAQDFVEWLVAGG-NH2; N-terminus assumed), the EC50 is 124 nM and 82.8 nM at Human GIPr; 0.00547 nM at Human GlucR; 0.0666 nM on Human GLP1R.
For `CCCCCCCCCCCCCCCC(=O)NCCCCCC(=O)NCCCC[C@H](NC(=O)[C@H](CO)NC(=O)[C@H](CC(=O)O)NC(=O)[C@H](CC(C)C)NC(=O)[C@H](Cc1ccc(O)cc1)NC(=O)[C@H](CCC(=O)O)NC(=O)[C@H](CO)NC(=O)[C@H](Cc1ccc(O)cc1)NC(=O)[C@H](CC(=O)O)NC(=O)[C@H](CO)NC(=O)[C@@H](NC(=O)[C@H](Cc1ccccc1)NC(=O)[C@@H](NC(=O)CNC(=O)[C@H](CCC(N)=O)NC(=O)[C@H](CO)NC(=O)[C@@H](N)Cc1c[nH]cn1)[C@@H](C)O)[C@@H](C)O)C(=O)N[C@@H](CCCNC(=N)N)C(=O)N[C@@H](C)C(=O)N[C@@H](CCC(N)=O)C(=O)N[C@@H](CC(=O)O)C(=O)N[C@@H](Cc1ccccc1)C(=O)N[C@H](C(=O)N[C@@H](CCC(N)=O)C(=O)N[C@@H](Cc1c[nH]c2ccccc12)C(=O)N[C@@H](CC(C)C)C(=O)N[C@@H](CCC(=O)O)C(=O)N[C@@H](CCCNC(=N)N)C(=O)NCC(=O)NCC(N)=O)C(C)C` [g614] (H-HSQGTFTSDYSEYLDSK([Ahx-Palmitoyl])RAQDFVQWLERGG-NH2; N-terminus assumed), the EC50 at Human GIPr was found to be 99.3 nM; on Human GlucR it was 0.00365 nM; on Human GLP1R, 0.00931 nM.
In the same order, the values of `CCCCCCCCCCCCCCCC(=O)N[C@@H](CCC(=O)NCCCC[C@H](NC(=O)[C@H](CO)NC(=O)[C@H](CC(=O)O)NC(=O)[C@H](CC(C)C)NC(=O)[C@H](Cc1ccc(O)cc1)NC(=O)[C@H](CCCCN)NC(=O)[C@H](CO)NC(=O)[C@H](Cc1ccc(O)cc1)NC(=O)[C@H](CC(=O)O)NC(=O)[C@H](CO)NC(=O)[C@@H](NC(=O)[C@H](Cc1ccccc1)NC(=O)[C@@H](NC(=O)CNC(=O)[C@H](CCC(=O)O)NC(=O)[C@H](CO)NC(=O)[C@@H](N)Cc1c[nH]cn1)[C@@H](C)O)[C@@H](C)O)C(=O)N[C@@H](CCCNC(=N)N)C(=O)N[C@@H](C)C(=O)N[C@@H](CCC(=O)O)C(=O)N[C@@H](CC(=O)O)C(=O)N[C@@H](Cc1ccccc1)C(=O)N[C@H](C(=O)N[C@@H](CCC(=O)O)C(=O)N[C@@H](Cc1c[nH]c2ccccc12)C(=O)N[C@@H](CC(C)C)C(=O)N[C@H](C(=O)N[C@@H](C)C(=O)NCC(=O)NCC(N)=O)C(C)C)C(C)C)C(=O)O` [g639] (H-HSEGTFTSDYSKYLDSK([γGlu-Palmitoyl])RAEDFVEWLVAGG-NH2; N-terminus assumed) are 82.1 nM, 82.1 nM and 0.244 nM.
